What was measured:
[1] = system: rats; settings: rat, in vivo
[2] = system: rats; settings: rat; pretreatment quetiapine 10 mg/kg i.p.; heroin 0.032 mg/kg/infusion i.v., five lever presses per infusion; FIG. 2

| SMILES | average tail flick latency [1] | median tail flick latency [1] | self-administration (reinforcing effect) of heroin [2] |
| --- | --- | --- | --- |
| COc1ccc2c3c1O[C@H]1C(=O)CC[C@@]4(O)[C@@H](C2)N(C)CC[C@]314 [oxycodone] | about 7.3 seconds | ~5.8 s |  |
| OCCOCCN1CCN(C2=Nc3ccccc3Sc3ccccc32)CC1 [quetiapine] |  |  | decreased |
